How the values were obtained:
Test in all cases: relative viability (nuclei count vs DMSO), 5 days (fraction); higher = more cells survive
[1] = compound: C/C(=N\NC(=S)N1CCC1)/C2=CC=CC=N2 + Cc1nc(Nc2ncc(C(=O)Nc3c(C)cccc3Cl)s2)cc(N2CCN(CCO)CC2)n1 [Dasatinib] (partner 0.075 µM)
Procedure, shortened: (§1)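 Lung cancer cell lines were seeded in 1536-well plates and dosed by pin tool the next day, with either a single drug or a fixed anchor-drug dose combined with five library-drug doses (not always all listed) spaced in √10 steps. Five days later, one step fixed the cells and stained their nuclei (final 0.05% Triton X-100, 1% formaldehyde, 1 ug/ml Hoechst), and nuclei were counted on 4× images. Relative viability is the nuclei count in treated wells divided by the count in vehicle wells, and each value is the median of duplicate plates.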

[2] = compound: C/C(=N\NC(=S)N1CCC1)/C2=CC=CC=N2 + CC(C)C[C@H](NC(=O)[C@H](Cc1ccccc1)NC(=O)c1cnccn1)B(O)O [Bortezomib] (partner 0.002 µM)
Procedure, shortened: as §1

[3] = compound: C/C(=N\NC(=S)N1CCC1)/C2=CC=CC=N2 + CC1(C)CCC(c2ccc(Cl)cc2)=C(CN2CCN(c3ccc(C(=O)NS(=O)(=O)c4ccc(N[C@H](CCN5CCOCC5)CSc5ccccc5)c(S(=O)(=O)C(F)(F)F)c4)cc3)CC2)C1 [Navitoclax] (partner 0.5 µM)
Procedure, shortened: as §1

[4] = compound: C/C(=N\NC(=S)N1CCC1)/C2=CC=CC=N2 + CCNC(=O)c1noc(-c2cc(C(C)C)c(O)cc2O)c1-c1ccc(CN2CCOCC2)cc1 [Luminespib] (partner 0.01 µM)
Procedure, shortened: as §1

Row | Cell Line | relative viability ([1]; first compound 0.05 µM) | relative viability ([1]; first compound 0.1581 µM) | relative viability ([1]; first compound 0.5 µM) | relative viability ([1]; first compound 1.581 µM) | relative viability ([1]; first compound 5 µM) | relative viability ([2]; first compound 0.05 µM) | relative viability ([2]; first compound 0.1581 µM) | relative viability ([2]; first compound 0.5 µM) | relative viability ([2]; first compound 1.581 µM) | relative viability ([2]; first compound 5 µM) | relative viability ([3]; first compound 0.05 µM) | relative viability ([3]; first compound 0.1581 µM) | relative viability ([3]; first compound 0.5 µM) | relative viability ([3]; first compound 1.581 µM) | relative viability ([3]; first compound 5 µM) | relative viability ([4]; first compound 0.05 µM) | relative viability ([4]; first compound 0.1581 µM) | relative viability ([4]; first compound 0.5 µM) | relative viability ([4]; first compound 1.581 µM) | relative viability ([4]; first compound 5 µM)
1 | HARA | 0.0909 | 0.0673 | 0.0699 | 0.063 | 0.083 | 0.22 | 0.143 | 0.197 | 0.13 | 0.0787 | 0.361 | 0.165 | 0.212 | 0.124 | 0.11 | 0.124 | 0.121 | 0.0663 | 0.0648 | 0.0838
2 | HCC-44 | – | – | – | – | – | 0.335 | 0.234 | 0.221 | 0.19 | 0.239 | 0.782 | 0.311 | 0.194 | 0.222 | 0.258 | 0.326 | 0.307 | 0.283 | 0.32 | 0.242
3 | HCC-78 | 0.264 | 0.256 | 0.268 | 0.181 | 0.157 | 0.509 | 0.257 | 0.178 | 0.153 | 0.232 | 0.492 | 0.245 | 0.218 | 0.189 | 0.12 | – | – | – | – | –
4 | HCC-366 | 0.0305 | 0.0271 | 0.0302 | 0.0382 | 0.031 | 0.0281 | 0.0189 | 0.0149 | 0.0223 | 0.02 | 0.0139 | 0.0237 | 0.0184 | 0.0179 | 0.0172 | – | – | – | – | –
5 | IA-LM | – | – | – | – | – | 0.0596 | 0.0778 | 0.0529 | 0.0604 | 0.0675 | 0.0776 | 0.062 | 0.0799 | 0.0503 | 0.0417 | – | – | – | – | –
6 | LCLC-103H | 0.123 | 0.136 | 0.156 | 0.103 | 0.164 | 0.294 | 0.353 | 0.242 | 0.229 | 0.206 | – | – | – | – | – | 0.174 | 0.204 | 0.233 | 0.182 | 0.158
7 | LK-2 | 0.141 | 0.187 | 0.17 | 0.121 | 0.151 | – | – | – | – | – | 0.121 | 0.146 | 0.108 | 0.112 | 0.126 | 0.16 | 0.147 | 0.158 | 0.188 | 0.131
8 | NCI-H358 | 0.0836 | 0.0975 | 0.102 | 0.0651 | 0.092 | – | – | – | – | – | – | – | – | – | – | 0.0782 | 0.118 | 0.144 | 0.108 | 0.0871
9 | NCI-H650 | 0.19 | 0.212 | 0.191 | 0.216 | 0.177 | 0.181 | 0.238 | 0.199 | 0.134 | 0.196 | – | – | – | – | – | 0.177 | 0.2 | 0.198 | 0.173 | 0.2
10 | NCI-H661 | 0.196 | 0.223 | 0.197 | 0.2 | 0.212 | 0.213 | 0.2 | 0.185 | 0.217 | 0.185 | – | – | – | – | – | 0.246 | 0.221 | 0.212 | 0.202 | 0.219
11 | NCI-H1299 | – | – | – | – | – | 0.111 | 0.155 | 0.206 | 0.209 | 0.138 | 0.0935 | 0.128 | 0.17 | 0.178 | 0.124 | – | – | – | – | –
12 | NCI-H1395 | 0.27 | 0.362 | 0.315 | 0.29 | 0.326 | – | – | – | – | – | 0.4 | 0.346 | 0.365 | 0.338 | 0.352 | 0.305 | 0.338 | 0.332 | 0.349 | 0.337
13 | NCI-H1563 | 0.394 | 0.462 | 0.408 | 0.229 | 0.312 | 0.664 | 0.701 | 0.611 | 0.574 | 0.553 | – | – | – | – | – | 0.464 | 0.435 | 0.472 | 0.429 | 0.467
14 | NCI-H1703 | – | – | – | – | – | 0.0746 | 0.0958 | 0.166 | 0.134 | 0.171 | 0.124 | 0.134 | 0.156 | 0.124 | 0.122 | – | – | – | – | –
15 | NCI-H1793 | 0.113 | 0.145 | 0.151 | 0.121 | 0.145 | – | – | – | – | – | 0.225 | 0.208 | 0.19 | 0.149 | 0.225 | 0.214 | 0.142 | 0.103 | 0.119 | 0.141
16 | NCI-H1944 | 0.139 | 0.151 | 0.153 | 0.128 | 0.127 | – | – | – | – | – | 0.684 | 0.988 | 0.392 | 0.189 | 0.18 | 0.527 | 0.265 | 0.143 | 0.124 | 0.113
17 | NCI-H2170 | 0.164 | 0.167 | 0.145 | 0.125 | 0.161 | – | – | – | – | – | 0.581 | 0.543 | 0.168 | 0.207 | 0.189 | 0.689 | 0.25 | 0.136 | 0.18 | 0.151
18 | NCI-H2342 | 0.297 | 0.283 | 0.258 | 0.249 | 0.284 | – | – | – | – | – | – | – | – | – | – | 0.261 | 0.279 | 0.23 | 0.245 | 0.238
19 | SK-MES-1 | 0.145 | 0.155 | 0.133 | 0.107 | 0.126 | – | – | – | – | – | 0.186 | 0.21 | 0.18 | 0.13 | 0.185 | 0.169 | 0.155 | 0.175 | 0.152 | 0.189
